Test results as given in patent US20130136778A1, “PTEROSTILBENE (PTER) FOR USE IN THE PREVENTION AND/OR TREATMENT OF SKIN DISEASES, DAMAGES OR INJURIES” (GREEN MOLECULAR, S.L., priority 2009, published 2013).

Assays:
mice = assay: Skinfold after continuous administration of treatments (side effects on skin); format: in vivo; conditions: daily for 6 consecutive days; 10 μmoles/mouse polyphenols, 0.5 μmoles/mouse dexamethasone
Method: FIG. 17. […] The application of the treatments 10 μmoles/mouse of polyphenols and 0.5 μmoles/mouse of dexamethasone was performed daily on a third of the back of the mice for 6 consecutive days. The skinfold was measured with the help of a vernier caliper.*p>0.001 with regards to the control. ANOVA followed by a Tukey test.
Prior to evaluating the results of different treatments on different models of dermatitis, the possible side effects of continues administration of polyphenols on the skin of the mice had to be evaluated as shown in FIG. 17. For this purpose, the dose for this daily evaluation was administered over 6 consecutive days.

SKH-1 mice [1] = assay: Skinfold thickness (edema) after acute UV-B exposure of 360 mJ/cm2; format: in vivo; conditions: FIG. 1
Method: UVB Acute exposure protocols were used: Mice underwent a single exposure of 360 mJ/cm2. The study was conducted at 24 hours after exposure. This protocol was used to evaluate the photoprotective effect of the compounds studied. With the same acute-phase protocol mice from all groups were irradiated. Subsequently mice remained in the animal storage area for a week to see the evolution of the inflammatory response and edema. For the UVB exposure studies (chronic or acute) a topical administration to the back of the mouse was conducted. The commercial sunscreens were applied directly on the mouse. The polyphenols in the study were administered in a liposomal preparation diluted 1:1 with Carbopol polymer which will be the vehicle for these liposomes. Each polyphenol dose administered was 10 μmol/mouse, as free acid. • 1. Edema formation: skinfold thickness was determined with a caliper 24 hours after the first exposure. • 2. Study of the thickness of the epidermis after exposure to acute irradiation (360 mj/cm^2 24 h hours and 7 days after irradiation). • 3. Histological studies: measuring, in the pictures obtained from histological sections, the thickness of the epidermis. With the purpose of assessing the effects of the photoprotective compounds studied, female mice SKH-1 of between 6-8 weeks old were subjected to a single exposure of 360 mJ/cm. For the ultraviolet B (UVB) irradiation exposure, a camera specifically prepared, available at our laboratory was used (Crosslinker; Bio-Link BLX 254) equipped with 5 tubes that produce 80% of the UVB radiation, with a maximum emission of 312 nm. The two protocols of UV-B exposure used were: • Intense exposure after a single exposure of 360 mJ/cm^2. The study was carried out 24 hours after the exposure. This protocol was used to assess the photoprotective effects of the compounds studied. • Intense exposure after a single exposure of 360 mJ/cm^2. The study was carried out 1 week after the exposure. The mice were kept in the shed for a week to observe the evolution of the inflammatory and edematous response. As reference, several commercial photoprotective products were used ([…] Heliocare). The reference compounds as well as the products object of this study, were applied on the back of the mice for 20 minutes after or 20 minutes before the irradiation with UV-B, to determine if the reaction observed was due to an effect of the solar filter or not. […] The skinfold was measured by making a fold on the skin from the back of the mice, from the axillae to the hips; the fold was measured with a vernier caliper. The increase in the fold was calculated by the difference between the initial point, before the effects of the reaction, and the thickness in each point.

SKH-1 mice [2] = assay: Anatomopathological study of the skin after chronic exposure to UV-B; format: in vivo; parameters: key to Stroma: Parakeratosis: (+) light; (+++) serious; conditions: after 30 weeks chronic UV-B 180 mJ/cm2
Method: Histochemical techniques were used to study the skin tissues of the different procedures, at a microscopic level.
The tissues were fixed in 4% formaldehyde in PBS over 24 h at 22° C. After the tissues were fixed, they had to be dehydrated in large amounts of ethanol and placed in a hydrophobic and xylene mixture to allow the paraffin to penetrate the tissues to provide sufficient consistency for slicing them thinly in a microtome.
The samples in paraffin were processed with the microtome obtaining slices of about 5-10 μm. The samples were spread over a drop of gelatin at 37° C. and were collected in gelatinized slides.
The protocol used for staining the samples was: • 1. Incubation with Mayer's Hematoxylin for 10-15 minutes. • 2. Wash under running water until bluish. • 3. Incubate with Eosin (1%) for 2-4 minutes. • 4. Eliminate the remaining eosin in ethanol 70° • 5. Dehydration. • 6. Rinse with xylol for 3 minutes. • 7. Let the trays dry out on the stove at 37°.
In relation to the histopathological exam of the tumors induced by chronic irradiation to UV in the SKH1 mice, it was confirmed that the treatment with UV-B produced a strong acanthosis due primarily to the inflammatory process; this gave way to the first signs of tumors, mostly of carcinoma type and not melanoma.
Both the reference compounds and the ones subject of this study (10 μmoles/mouse of polyphenols, or 200 μl of each photoprotector) were applied to the back of the mice for 20 minutes prior to their exposure to UV-B. Medium of groups of 20 mice. Every parameter was measured according to the degree of seriousness (+) light-(+++) serious.

SKH-1 mice [3] = assay: Thickness of the epidermis after acute UV-B exposure of 360 mJ/cm2; format: in vivo; conditions: FIG. 2, versus group treated only with UV-B
Method: UVB Acute exposure protocols were used: Mice underwent a single exposure of 360 mJ/cm2. The study was conducted at 24 hours after exposure. This protocol was used to evaluate the photoprotective effect of the compounds studied. With the same acute-phase protocol mice from all groups were irradiated. Subsequently mice remained in the animal storage area for a week to see the evolution of the inflammatory response and edema. • 1. Edema formation: skinfold thickness was determined with a caliper 24 hours after the first exposure. • 2. Study of the thickness of the epidermis after exposure to acute irradiation (360 mj/cm^2 24 h hours and 7 days after irradiation). • 3. Histological studies: measuring, in the pictures obtained from histological sections, the thickness of the epidermis. For studies of acute exposure skin samples were taken from the back of the mouse. These samples were fixed with 4% paraformaldehyde (24 hours) and embedded in paraffin. Following cutting the samples were stained with hematoxylin and eosin. The two protocols of UV-B exposure used were: • Intense exposure after a single exposure of 360 mJ/cm^2. The study was carried out 24 hours after the exposure. This protocol was used to assess the photoprotective effects of the compounds studied. • Intense exposure after a single exposure of 360 mJ/cm^2. The study was carried out 1 week after the exposure. The mice were kept in the shed for a week to observe the evolution of the inflammatory and edematous response. At 24 hours or 1 week after the administration of the different treatments the mice were sacrificed and their skin fixed with 4% PFA. To measure the thickness of the epidermis to evaluate possible hyperplasia, a computer program was used, Image J, calibrated with the assistance of a Neubauer camera which allowed the measuring of the epidermis. Results obtained were statistically analyzed by ANOVA and contrasted by the Tukey test and grouped according to the significant differences. […] Therefore PTER alone could be used efficiently in the prevention of skin diseases, injuries or damages induced by ultraviolet B radiation. The evaluation of skin thickness was carried out by using computer software (IMAGE J). Results obtained by ANOVA were contrasted by the Tukey test and grouped according to the significant differences. […] Therefore PTER separately could be used efficiently in the prevention of skin diseases, damages or injuries induced by ultraviolet B radiation.

[4] = Absorption spectrum of polyphenols (mechanical filter capacity); format: physicochemical; conditions: 1 mM in pure ethanol, 200-800 nm
Method: A solution of 1 mM of each polyphenol was prepared (PTER, Resveratrol and QUER) in absolute ethanol (HPLS quality; Quima) and the absorption spectrum was studied between 200 and 800 nm using a Multiskan Spectrum (ThermoScientific).
With the purpose of studying the capacity of the polyphenols used in this study, we decided to evaluate the absorption of light throughout the ultraviolet light spectrum as shown in FIG. 13.

[5] = Asensi et al. 2002; cited from earlier work
SKH-1 mice [6] = assay: Experimental psoriasis induced by TPA; format: in vivo
Method: For the induction of psoriasis, the agent “12-O-tetradecanoylphorbol-13 acetate” (TPA) was used.
Since our objective was to assess the progress of the lesions caused by psoriasis in combination with the use of polyphenols, a model of continuous exposure and a weaker concentration of TPA were used, on a daily dose of 2 nmoles of TPA over a period of a week, which allowed us to observe the progress of the psoriasis.
The induction was performed with 2 nmol TPA/mouse on an area of 1 cm^2, applying 10 μL of the 200 μM solution in acetone. This application protocol was carried out taking into account that when applying 20 μL as stated in the model, the volume increased considerably and it lost its concentration, therefore it was decided to make it more concentrated.
As a standard treatment, Dexamethasone was used, (from Sigma Solution 25 mM in acetone). The administration of the standard treatment and the products to be tested were given 30 minutes prior to the application of TPA, both beginning on the same day.
The groups, of 6 mice, for this assessment were: • Not treated. • Reference compound: 0.5 μmoles of Dexamethasone (200 μL of one solution 25 mM in acetone). • Medium: 200 μl of vacuumed Liposomes. • Resveratrol: 200 μL of Resveratrol Liposomes (10 μmol in total). • PTER: 200 μL of PTER Liposomes (10 μmol in total). • QUER: 200 μL of QUER Liposomes (10 μmol in total). • PTER+QUER:: 200 μL of PTER Liposomes+QUER (10 μmol in total).
At 24 hours (day 7) after the last administration of the different treatments and TPA, 3 mice from each group were sacrificed and their skin fixed with 4% PFA. The remaining mice were kept under the treatment with no exposure to TPA, to verify if the skin recovered faster on the treatment than on its own. At 24 hours (day 9) after the last administration of the different treatments the rest of the mice were sacrificed and their skin fixed with 4% PFA.
The flaky aspect of the skin was quantified in a scale of 0-3, being 0, nothing; 1, mild; 2, moderate; 3, severe.

Structure (SMILES)	skinfold / structure of the skin after continuous administration (mice)	formation of the edema (thickness of the skin) after severe UV-B exposure (SKH-1 mice [1])	Tumor (no/mouse × group) (SKH-1 mice [2]; Table 4, applied 20 min prior)	Stroma: Parakeratosis (SKH-1 mice [2]; degree of seriousness)	thickness of the epidermis 24 hours after irradiation (before or after application) (SKH-1 mice [3])	absorption of light, range of maximum absorption [4]	bioavailability [5]	increase of skinfold throughout the procedure (SKH-1 mice [6]; FIG. 23, 6 consecutive days, treatment 30 min prior to 2 nmol TPA)	increase in the skinfold 24 hours after the first administration of TPA (SKH-1 mice [6]; FIG. 24, treatment 30 min prior to 2 nmol TPA)	histological analysis of the lesions (SKH-1 mice [6]; FIG. 28, hematoxylin-eosin, TPA daily over 7 days)
C[C@@H]1C[C@H]2[C@@H]3CCC4=CC(=O)C=C[C@]4(C)[C@@]3(F)[C@@H](O)C[C@]2(C)[C@@]1(O)C(=O)CO [dexamethasone]	did have side effects on the structure of the skin									
Oc1ccc(/C=C/c2cc(O)cc(O)c2)cc1 [RESV, 3,4′,5-trihydroxy-trans-stilbene, reference compound]		the formation of the edema was reduced	3.8	+	good photoprotection role but not as a repairer	peaks or maximum absorption in the range of Ultraviolet B	low bioavailability	the evolution was similar with an increase in the formation of edema	did not produce any effect on the increase of the skinfold in comparison to the TPA group	resembles more the group treated with TPA, than the group with PTER
